Results as given in ChEMBL document CHEMBL1123117, “Synthesis and antiinflammatory and analgesic activity of 5-aroyl-1,2-dihydro-3H-pyrrolo[1,2-a]pyrrole-1-carboxylic acids and related compounds” (J Med Chem, 1985).

Key:
physchem [1] = conditions: octanol/water
Description: Partition coefficient (logP) (HPLC)

physchem [2] = assay: physchem
Description: Dissociation constant (pKa)

in vivo = conditions: rat
Rattus norvegicus [3] = species: Rattus norvegicus; assay: animal or person
Description: Effective dose for adjuvant arthritis assay

Mus musculus [4] = species: Mus musculus; assay: animal or person
Description: Effective dose for mouse writhing assay

Rattus norvegicus [5] = species: Rattus norvegicus; assay: animal or person; conditions: 168 h, read-out: MED
Description: Minimum effective dose causing gastrointestinal erosion using seven-day chronic assay.

Rattus norvegicus [6] = species: Rattus norvegicus; assay: animal or person; remark: listed apart in the source
Description: Effective dose for cotton pellet assay

Rattus norvegicus [7] = species: Rattus norvegicus; assay: animal or person; remark: listed apart in the source
Description: Effective dose for rat paw assay

Rattus norvegicus [8] = species: Rattus norvegicus; assay: animal or person; conditions: 168 h
Description: Effective dose causing 50 % gastrointestinal erosion using seven-day chronic assay.

Mus musculus [9] = species: Mus musculus; assay: […] activity using mouse writhing assay.; type: functional
[10] = Therapeutic ratio as the ratio of MED value to that of ED30 for the carrageenan rat paw assay.; type: ADME; conditions: read-out: Therapeutic ratio
Rattus norvegicus [11] = species: Rattus norvegicus; assay: Antiinflammatory activity using adjuvant arthritis assay; type: functional

SMILES | logP (physchem [1]) | also measured
C#CCOc1ccc(C(=O)c2ccc3n2CCC3C(=O)O)cc1 (configuration not stated) | 3.63 | 
Cc1cccc(C(=O)c2ccc3n2CCC3C(=O)O)c1 (configuration not stated) | 3.23 | pKa (physchem [2]): 3.44
O=C(c1cccc(Cl)c1)c1ccc2n1CCC2C(=O)O (configuration not stated) | 3.48 | pKa (physchem [2]): 3.44
CCOc1ccc(C(=O)c2ccc3n2CCC3C(=O)O)cc1 (configuration not stated) | 3.3 | pKa (physchem [2]): 3.46
CC(C)(C)C(=O)c1ccc2n1CCC2C(=O)O (configuration not stated) | 2.6 | pKa (physchem [2]): 3.57
O=C(c1ccc(F)cc1)c1ccc2n1CCCCC2C(=O)O (configuration not stated) | 3.32 | 
CC(=O)c1ccc(C(=O)c2ccc3n2CCC3C(=O)O)cc1 (configuration not stated) | 2.27 | 
O=C(c1ccc(Cl)cc1)c1ccc2n1CC(C(=O)O)C2 (configuration not stated) | 3.45 | 
COc1ccc(C(=O)c2ccc3n2CCCC3C(=O)O)cc1 (configuration not stated) | 2.9 | 
CSc1ccc(C(=O)c2ccc3n2CCC3C(=O)O)cc1 (configuration not stated) | 3.68 | 
O=C(c1c(F)cccc1F)c1ccc2n1CCC2C(=O)O (configuration not stated) | 2.47 | 
CCOc1cccc(C(=O)c2ccc3n2CCC3C(=O)O)c1 (configuration not stated) | 3.31 | pKa (physchem [2]): 3.46
CC(C)C(=O)Nc1cccc(C(=O)c2ccc3n2CCC3C(=O)O)c1 (configuration not stated) | 2.57 | 
COc1ccc(C(=O)c2ccc3n2CCC3C(=O)O)cc1 (configuration not stated) [ANIROLAC] | 2.81 | selectivity ratio (in vivo): 39; pKa (physchem [2]): 3.55; ED50 (Rattus norvegicus [3]): 1.7 mg/kg; ED50 (Mus musculus [4]): 70 mg/kg; minimal effective dose (Rattus norvegicus [5]): 7 mg/kg/day; ED30 (Rattus norvegicus [6]): 3 mg/kg; ED30 (Rattus norvegicus [7]): 15 mg/kg; ED50 (Rattus norvegicus [8]): 22 mg/kg/day
O=C(c1ccc([N+](=O)[O-])cc1)c1ccc2n1CCC2C(=O)O (configuration not stated) | 2.48 | 
C=CCOc1ccc(C(=O)c2ccc3n2CCC3C(=O)O)cc1 (configuration not stated) | 3.48 | 
O=C(c1ccc(-c2ccccc2)cc1)c1ccc2n1CCC2C(=O)O (configuration not stated) | 4.27 | 
O=C(c1ccc(F)cc1F)c1ccc2n1CCC2C(=O)O (configuration not stated) | 2.59 | 
O=C(c1cccc(Cl)c1)c1ccc2n1CCCC2C(=O)O (configuration not stated) | 2.61 | 
N#Cc1cccc(C(=O)c2ccc3n2CCC3C(=O)O)c1 (configuration not stated) | 2.14 | 
O=C(c1cccc(O)c1)c1ccc2n1CCC2C(=O)O (configuration not stated) | 2.18 | 
O=C(c1ccc(Br)cc1)c1ccc2n1CCC2C(=O)O (configuration not stated) | 3.6 | 
O=C(c1ccc(F)cc1)c1ccc2n1CCCC2C(=O)O (configuration not stated) | 2.94 | 
COc1cccc(C(=O)c2ccc3n2CCC3C(=O)O)c1 (configuration not stated) | 2.74 | 
O=C(c1cccc(F)c1)c1ccc2n1CCC2C(=O)O (configuration not stated) | 2.9 | pKa (physchem [2]): 3.46
C=Cc1ccc(C(=O)c2ccc3n2CCC3C(=O)O)cc1 (configuration not stated) | 3.47 | selectivity ratio (in vivo): 18; ED50 (Rattus norvegicus [3]): 1.7 mg/kg; ED50 (Mus musculus [4]): 70 mg/kg; minimal effective dose (Rattus norvegicus [5]): 5 mg/kg/day; ED30 (Rattus norvegicus [6]): 3 mg/kg; ED30 (Rattus norvegicus [7]): 15 mg/kg; ED50 (Rattus norvegicus [8]): 13 mg/kg/day; Activity (Mus musculus [9]): ~200
CS(=O)(=O)c1ccc(C(=O)c2ccc3n2CCC3C(=O)O)cc1 (configuration not stated) | 1.41 | 
C#Cc1ccc(C(=O)c2ccc3n2CCC3C(=O)O)cc1 (configuration not stated) | 3.33 | 

SMILES | logP (physchem [1]) | also measured
O=C(c1cccc(C(F)(F)F)c1)c1ccc2n1CCC2C(=O)O (configuration not stated) | 3.69 | 
O=C(c1ccccc1I)c1ccc2n1CCC2C(=O)O (configuration not stated) | 2.98 | 
O=C(c1ccccc1)c1ccc2n1CCC2C(=O)O (configuration not stated) [KETOROLAC] | 2.72 | pKa (physchem [2]): 3.49; ED50 (Rattus norvegicus [3]): 1.7 mg/kg; ED50 (Mus musculus [4]): 70 mg/kg; minimal effective dose (Rattus norvegicus [5]): 5 mg/kg/day; ED30 (Rattus norvegicus [6]): 3 mg/kg; selectivity ratio [10]: 18; ED30 (Rattus norvegicus [7]): 15 mg/kg; ED50 (Rattus norvegicus [8]): 13 mg/kg/day
O=C(c1ccc(O)cc1)c1ccc2n1CCC2C(=O)O (configuration not stated) [P-HYDROXY KETOROLAC] | 2.17 | 
CC(C)Oc1ccc(C(=O)c2ccc3n2CCC3C(=O)O)cc1 (configuration not stated) | 3.38 | pKa (physchem [2]): 3.43
O=C(c1ccc(F)cc1)c1ccc2n1CCC2C(=O)O (configuration not stated) | 2.82 | selectivity ratio (in vivo): 20; pKa (physchem [2]): 3.51; ED50 (Rattus norvegicus [3]): 1.7 mg/kg; ED50 (Mus musculus [4]): 70 mg/kg; minimal effective dose (Rattus norvegicus [5]): 5 mg/kg/day; ED30 (Rattus norvegicus [6]): 3 mg/kg; ED30 (Rattus norvegicus [7]): 15 mg/kg; Activity (Rattus norvegicus [11]): 1; ED50 (Rattus norvegicus [8]): 13 mg/kg/day
CSc1ccc(C(=O)c2ccc3n2CCCCC3C(=O)O)cc1 (configuration not stated) | 3.92 | 
O=C(c1ccc2c(c1)OCO2)c1ccc2n1CCC2C(=O)O (configuration not stated) | 3.61 | 
C[S+]([O-])c1ccc(C(=O)c2ccc3n2CCC3C(=O)O)cc1 (configuration not stated) | 1.08 | 
O=C(Cc1ccccc1)c1ccc2n1CCC2C(=O)O (configuration not stated) | 2.52 | 
O=C(c1ccccc1Cl)c1ccc2n1CCC2C(=O)O (configuration not stated) | 2.71 | pKa (physchem [2]): 4.33
O=C(c1ccccc1)c1ccc2n1CCCCC2C(=O)O (configuration not stated) | 3.17 | 
O=C(c1ccccc1)c1ccc2n1CC(C(=O)O)C2 (configuration not stated) | 2.57 | 
CSc1ccc(C(=O)c2ccc3n2CCCC3C(=O)O)cc1 (configuration not stated) | 3.54 | 
O=C(c1c(F)c(F)c(F)c(F)c1F)c1ccc2n1CCC2C(=O)O (configuration not stated) | 3.24 | 
Cc1ccc(C(=O)c2ccc3n2CCC3C(=O)O)cc1 (configuration not stated) | 3.24 | pKa (physchem [2]): 3.44; ED50 (Rattus norvegicus [3]): 1.7 mg/kg; ED50 (Mus musculus [4]): 70 mg/kg; minimal effective dose (Rattus norvegicus [5]): 3 mg/kg/day; ED30 (Rattus norvegicus [6]): 3 mg/kg; selectivity ratio [10]: 8; ED30 (Rattus norvegicus [7]): 15 mg/kg; ED50 (Rattus norvegicus [8]): 15 mg/kg/day
Cc1ccccc1C(=O)c1ccc2n1CCC2C(=O)O (configuration not stated) | 2.9 | pKa (physchem [2]): 3.44
O=C(c1ccccc1O)c1ccc2n1CCC2C(=O)O (configuration not stated) | 2.94 | 
O=C(c1ccc(Cl)cc1Cl)c1ccc2n1CCC2C(=O)O (configuration not stated) | 3.56 | 
O=C(c1cccc([N+](=O)[O-])c1)c1ccc2n1CCC2C(=O)O (configuration not stated) | 2.47 | 
Cc1ccc(C(=O)c2ccc3n2CCCC3C(=O)O)cc1 (configuration not stated) | 3.35 | 
CS(=O)(=O)c1ccc(C(=O)c2ccc3n2CCCC3C(=O)O)cc1 (configuration not stated) | 1.53 | 
O=C(c1ccc(C(F)(F)F)cc1)c1ccc2n1CCC2C(=O)O (configuration not stated) | 3.71 | 
O=C(c1ccc2n1CCC2C(=O)O)C1CCC1 (configuration not stated) | 2.41 | pKa (physchem [2]): 3.54
O=C(c1ccc(Cl)cc1)c1ccc2n1CCCC2C(=O)O (configuration not stated) | 3.6 | 
N#Cc1ccc(C(=O)c2ccc3n2CCC3C(=O)O)cc1 (configuration not stated) | 2.21 | 
O=C(c1ccc2ccccc2c1)c1ccc2n1CCC2C(=O)O (configuration not stated) | 3.97 | pKa (physchem [2]): 3.44
